From ChEMBL document CHEMBL1201862, “PubChem BioAssay data set” (2004)
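The compound was tested at five concentrations on cells cultured in 96-well plates, with a 48-hour exposure period. GI50 = concentration required for 50% inhibition of growth.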 Calls of active or inactive are those of the source. Cut-off read from the data, not from the text of the source: active = GI50 up to about 1.1 µM and inactive = higher.

Legend:
Assay in all cases: DTP human tumour cell line panel, 48 h
HOP-18 = system: HOP-18
RXF 631 = system: RXF 631
ACHN = system: ACHN
DLD-1 = system: DLD-1
UO-31 = system: UO-31
HCT-116 = system: HCT-116
A498 = system: A498
HOP-62 = system: HOP-62
OVCAR-5 = system: OVCAR-5
786-0 = system: 786-0
HCT-15 = system: HCT-15
NCI-H522 = system: NCI-H522
OVCAR-3 = system: OVCAR-3
M19-MEL = system: M19-MEL
KM-20L2 = system: KM-20L2
SF-268 = system: SF-268
M14 = system: M14
EKVX = system: EKVX
CAKI-1 = system: CAKI-1
Malme-3M = system: Malme-3M
XF498 = system: XF498
RPMI-8226 = system: RPMI-8226
HT-29 = system: HT-29
KM12 = system: KM12
SN12C = system: SN12C
SW-620 = system: SW-620
SF-295 = system: SF-295
HCC 2998 = system: HCC 2998
LXFL 529 = system: LXFL 529
NCI-H23 = system: NCI-H23
IGROV-1 = system: IGROV-1
K562 = system: K562
OVCAR-4 = system: OVCAR-4
TK-10 = system: TK-10
UACC-62 = system: UACC-62
SK-MEL-5 = system: SK-MEL-5
U-251 = system: U-251
SF-539 = system: SF-539
NCI-H226 = system: NCI-H226
A549 = system: A549
SR = system: SR
DMS-114 = system: DMS-114
DMS-273 = system: DMS-273
SK-MEL-2 = system: SK-MEL-2
CCRF-CEM = system: CCRF-CEM
SK-MEL-28 = system: SK-MEL-28
SK-OV-3 = system: SK-OV-3
HOP-92 = system: HOP-92
SNB-75 = system: SNB-75
RXF 393 = system: RXF 393
NCI-H460 = system: NCI-H460
LOX IMVI = system: LOX IMVI
UACC-257 = system: UACC-257
SNB-19 = system: SNB-19
MOLT-4 = system: MOLT-4
HL-60 = system: HL-60
COLO 205 = system: COLO 205
OVCAR-8 = system: OVCAR-8
SNB-78 = system: SNB-78

Measured: GI50

O=C(Cc1ccccc1)C(c1ccccc1)S(=O)(=O)c1ccccc1 (centres undefined)
83.6 µM: HCT-15
inactive: HOP-18 85.5 µM | RXF 631 > 100 µM | ACHN > 100 µM | DLD-1 > 100 µM | UO-31 41.2 µM | HCT-116 59.3 µM | A498 > 100 µM | HOP-62 > 100 µM | OVCAR-5 > 100 µM | 786-0 > 100 µM | NCI-H522 88.7 µM | OVCAR-3 > 100 µM | M19-MEL > 100 µM | KM-20L2 > 100 µM | SF-268 > 100 µM | M14 > 100 µM | EKVX > 100 µM | CAKI-1 > 100 µM | Malme-3M > 100 µM | XF498 > 100 µM | RPMI-8226 > 100 µM | HT-29 > 100 µM | KM12 > 100 µM | SN12C > 100 µM | SW-620 > 100 µM | SF-295 > 100 µM | HCC 2998 > 100 µM | LXFL 529 87.1 µM | NCI-H23 77.4 µM | IGROV-1 > 100 µM | K562 93.3 µM | OVCAR-4 73.3 µM | TK-10 > 100 µM | UACC-62 75.2 µM | SK-MEL-5 > 100 µM | U-251 > 100 µM | SF-539 > 100 µM | NCI-H226 > 100 µM | A549 59.4 µM | SR 69.3 µM | DMS-114 48.6 µM | DMS-273 > 100 µM | SK-MEL-2 > 100 µM | CCRF-CEM > 100 µM | SK-MEL-28 > 100 µM | SK-OV-3 > 100 µM | HOP-92 81.5 µM | SNB-75 23 µM | RXF 393 67 µM | NCI-H460 > 100 µM | LOX IMVI > 100 µM | UACC-257 > 100 µM | SNB-19 > 100 µM | MOLT-4 > 100 µM | HL-60 > 100 µM | COLO 205 > 100 µM | OVCAR-8 > 100 µM | SNB-78 97.7 µM
